*1 amine or outer side, *2 acyl side, *3 side chain or, on linkers, in order; H or OH if unused. Where a SMILES comes first, the peptide text is derived from it. Side-chain parts run from the residue outwards. The star is where a group is joined. C18 diacid = O=C(O)CCCCCCCCCCCCCCCCC(=O)*; γGlu = O=C(O)[C@H](CCC(=O)[*:2])N[*:1]; Isovaleryl = CC(C)CC(=O)*; AEEA = NCCOCCOCC(=O)O
Experiments:
[1] = tested on: normal NMRI mice; experiment: Effect on acute food intake in normal NMRI mice; format: in vivo; conditions: male NMRI mice, 10 nmol/kg subcutaneously once
Procedure, shortened: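 A single 10 nmol/kg s.c. peptide dose was given 1 h before lights-off to male NMRI mice fasted from 6 h before the night phase (n=7-8). Intake was recorded continuously by microchip-identified HM-2 feeding channels. Values are normalized to vehicle controls (50 mM phosphate buffer pH7 with 5% Mannitol).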

[2] = target: T1, Human Neuropeptide Y2 Receptor (Homo sapiens, UniProt P49146); experiment: Radioligand binding competition assay (RLB); conditions: Table 3; human 125I-PYY (1-36) 0.02 nM, Y2 receptor membranes; read-out: Ki
T1 construct: purchased CHEMICON HTS066M
T1 sequence (P49146 1-381): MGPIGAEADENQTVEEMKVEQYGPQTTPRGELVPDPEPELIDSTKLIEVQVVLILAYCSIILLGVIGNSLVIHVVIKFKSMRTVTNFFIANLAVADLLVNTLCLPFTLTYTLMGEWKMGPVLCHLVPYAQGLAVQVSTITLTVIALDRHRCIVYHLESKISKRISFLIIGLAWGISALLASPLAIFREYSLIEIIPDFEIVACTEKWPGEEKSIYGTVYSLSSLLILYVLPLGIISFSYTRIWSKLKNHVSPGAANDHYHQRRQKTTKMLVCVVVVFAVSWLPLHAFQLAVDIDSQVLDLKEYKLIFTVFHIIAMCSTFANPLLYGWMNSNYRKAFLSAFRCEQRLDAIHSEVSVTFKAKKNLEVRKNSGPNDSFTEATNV
Procedure, shortened: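 Membranes from cells expressing human Y2 receptor (0.5 μg protein/well) were incubated with radioligand and serially diluted peptides in 50 mM HEPES, 5 mM MgCl2, 1 mM CaCl2, 0.2% ovalbumin, pH 7.4, for 2 h at room temperature with shaking. Bound radioactivity was collected by filtration and counted; IC50 from sigmoidal nonlinear regression.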

| Ki [2] [nM] | SMILES | Acute Food Intake 24 h [% vehicle] [1] [% vehicle] |
| --- | --- | --- |
| 1.9 | CC(C)CC(=O)N[C@@H](C)C(=O)N1CCC[C@H]1C(=O)N[C@@H](CCC(=O)O)C(=O)N[C@@H](CCCCNC(=O)COCCOCCNC(=O)COCCOCCNC(=O)CC[C@H](NC(=O)CCCCCCCCCCCCCCCCC(=O)O)C(=O)O)C(=O)N1CCC[C@H]1C(=O)N[C@@H](CCC(=O)O)C(=O)N[C@@H](CCC(=O)O)C(=O)N[C@@H](CCC(=O)O)C(=O)N[C@@H](C)C(=O)N[C@@H](CO)C(=O)N1CCC[C@H]1C(=O)N[C@@H](CCC(=O)O)C(=O)N[C@@H](CCC(=O)O)C(=O)N[C@@H](CC(C)C)C(=O)N[C@@H](CCC(N)=O)C(=O)N[C@@H](CCCCN)C(=O)N[C@@H](Cc1ccc(O)cc1)C(=O)N[C@@H](Cc1ccc(O)cc1)C(=O)N[C@H](C(=O)N[C@@H](CO)C(=O)N[C@@H](CC(C)C)C(=O)N[C@@H](CCCNC(=N)N)C(=O)N[C@@H](Cc1c[nH]cn1)C(=O)N[C@@H](Cc1ccc(O)cc1)C(=O)N[C@@H](Cc1ccc(O)cc1)C(=O)N[C@@H](CC(N)=O)C(=O)N[C@@H](Cc1c[nH]c2ccccc12)C(=O)N[C@@H](CC(C)C)C(=O)N[C@H](C(=O)N[C@@H](CCCNC(=N)N)C(=O)N[C@@H](CCC(N)=O)C(=O)N[C@@H](CCCNC(=N)N)C(=O)N[C@@H](Cc1ccc(O)cc1)C(N)=O)[C@@H](C)O)C(C)C [Compound 205, N{alpha-4}-(3-methylbutanoyl)-N{epsilon-7}-[2-(2-{2-[2-(2-{2-[(4S)-4-carboxy-4-(17-carboxyheptadecanamido)butanamido]ethoxy}ethoxy)acetamido]ethoxy}ethoxy)acetamido]-[4A,7K,9E,11E,18Q,19K,22V,28Y,30W,31L]hPYY (4-36)] (Isovaleryl-APEK([AEEA-AEEA-γGlu-C18 diacid])PEEEASPEELQKYYVSLRHYYNWLTRQRY-NH2) | 65 |
| 3.8 | CC(C)CC(=O)N[C@@H](C)C(=O)N1CCC[C@H]1C(=O)N[C@@H](CCC(=O)O)C(=O)N[C@@H](CCCCNC(=O)COCCOCCNC(=O)COCCOCCNC(=O)CC[C@H](NC(=O)CCCCCCCCCCCCCCCCC(=O)O)C(=O)O)C(=O)N1CCC[C@H]1C(=O)N[C@@H](CCC(=O)O)C(=O)N[C@@H](CCC(=O)O)C(=O)N[C@@H](CC(=O)O)C(=O)N[C@@H](C)C(=O)N[C@@H](CO)C(=O)N[C@@H](CCC(=O)O)C(=O)N[C@@H](CCC(=O)O)C(=O)N[C@@H](CCC(=O)O)C(=O)N[C@H](C(=O)N[C@@H](CCC(N)=O)C(=O)N[C@@H](CCCNC(=N)N)C(=O)N[C@@H](Cc1ccc(O)cc1)C(=O)N[C@@H](Cc1ccc(O)cc1)C(=O)N[C@H](C(=O)N[C@@H](CO)C(=O)N[C@@H](CC(C)C)C(=O)N[C@@H](CCCNC(=N)N)C(=O)N[C@@H](Cc1c[nH]cn1)C(=O)N[C@@H](Cc1ccc(O)cc1)C(=O)N[C@@H](Cc1ccc(O)cc1)C(=O)N[C@@H](CC(N)=O)C(=O)N[C@@H](Cc1c[nH]c2ccccc12)C(=O)N[C@@H](CC(C)C)C(=O)N[C@H](C(=O)N[C@@H](CCCNC(=N)N)C(=O)N[C@@H](CCC(N)=O)C(=O)N[C@@H](CCCNC(=N)N)C(=O)N[C@@H](Cc1ccc(O)cc1)C(N)=O)[C@@H](C)O)C(C)C)[C@@H](C)O [Compound 208, N{alpha-4}-(3-methylbutanoyl)-N{epsilon-7}-[2-(2-{2-[2-(2-{2-[(4S)-4-carboxy-4-(17-carboxyheptadecanamido)butanamido]ethoxy}ethoxy)acetamido]ethoxy}ethoxy)acetamido]-[4A,7K,9E,14E,17T,18Q,22V,28Y,30W,31L]hPYY (4-36)] | 61 |

Reference: US12559529B2, “NPY2 receptor agonists” (Boehringer Ingelheim International GmbH, priority 2019, dated 2026)
